This note sets out measurements from PubChem BioAssay AID1949 (Southern Research Institute, 2009).

Converted amounts (≈) assume the structure as drawn. Inconclusive results are not listed. The source made the active and inactive calls. The rule behind the calls is not given here. A value given as a limit tells only on which side of the number the result lay.

The subject of this assay is M. tuberculosis H37Rv growth inhibition. Kind of assay: Mycobacterium tuberculosis H37Rv growth inhibition, cell based, confirmatory dose response (AID 1949).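 Note: bacteria grown 7 days with compound before Alamar blue readout.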
In the case of `Cc1csc(NC(=O)CSc2ccc(Br)cc2)n1`, the IC50 was 5.62 mg/L (≈ 16.4 µM).
With `Cc1ccc(C2=CC(c3cccc([N+](=O)[O-])c3)n3nnnc3N2)cc1C` (configuration not stated), the IC50 is 12.2 mg/L (≈ 35 µM).
Take `COc1ccc(-c2ccc(C#N)c(SCC(=O)OCc3ccccc3)n2)cc1`: the IC50 was 14.3 mg/L (≈ 36.5 µM).
With `COC(=O)COc1ccc(NC(=O)COc2ccc(C)c(C)c2)cc1` the figure was 3.35 mg/L (≈ 9.76 µM); with `CCOC(=O)c1sc(NC(=O)NC2CCCCC2)cc1C`, 0.75 mg/L (≈ 2.42 µM); with `CC(C)COc1ccc(-c2nn(-c3ccccc3)cc2C(=O)Nc2nccs2)cc1`, 0.19 mg/L (≈ 0.454 µM).
`C/C=C/c1ccc(OCCCOc2cccc3ccc(C)nc23)c(OC)c1`: the IC50 was 16.8 mg/L (≈ 46.3 µM).
Consider `COC(=O)COc1ccc(NC(=O)c2ccccc2F)cc1`, for which the IC50 was 0.65 mg/L (≈ 2.14 µM).
As for `Fc1ccc(-c2nn(-c3ccccc3)cc2CNCc2ccccc2)cc1`, the IC50 was 5.86 mg/L (≈ 16.4 µM).
For `CC(NC(=O)c1ccc(Br)cc1)c1ccc2c(c1)OCCO2` (configuration not stated) the value was 5.81 mg/L (≈ 16 µM).
As for `Cc1ccc([N+](=O)[O-])cc1NC(=O)c1cc(Cl)ccc1O`, the IC50 is 29.7 mg/L (≈ 96.8 µM).
For `Cc1ccc(-c2cc(C(F)F)n3ncc(C(=O)N4CCc5ccccc5C4)c3n2)cc1` the value was 38.3 mg/L (≈ 91.6 µM); for `COC(C)(C)C#CC(=O)c1cccc2ccccc12`, 2.78 mg/L (≈ 11 µM); for `c1ccc2c(C(c3ccncc3)c3c[nH]c4ccccc34)c[nH]c2c1`, 12.2 mg/L (≈ 37.8 µM).
Take `O=C(Nc1nc2ccccc2[nH]1)c1ccc(Br)cc1`: the half-maximal inhibitory concentration (IC50) is 14.5 mg/L (≈ 46 µM).
With `CC(C)C1C(c2ccccc2)NC(c2ccccc2)CC1(O)c1ccc(F)cc1` (configuration not stated), the IC50 is 10.1 mg/L (≈ 25.9 µM).
With `CCC(C)Oc1ccc(C(=O)NC(=S)Nc2ccc(NC(=O)c3ccco3)cc2)cc1` (configuration not stated), the IC50 is 0.36 mg/L (≈ 0.823 µM).
For `Cc1[nH]n(-c2ccccc2)c(=S)c1C=Nc1ccccc1O` the value was 2.35 mg/L (≈ 7.6 µM).
For the compound `O=C(c1ccccc1)c1ccc2nc(-c3cccc(NC(=O)C4CC4)c3)[nH]c2c1`, the IC50 was 7.78 mg/L (≈ 20.4 µM).
Turning to `Cc1cccc2c1N(CCOc1ccc(C(C)(C)C)cc1)C(=O)C2=O`, the IC50 was > 50 mg/L (inactive).
For `N#Cc1ccccc1-c1ccc(/C=C/[N+](=O)[O-])o1` the value was > 50 mg/L (inactive); for `CC(C(=O)OCc1ccccc1Cl)n1cnc2scc(-c3ccc(Cl)cc3)c2c1=O` (configuration not stated), > 50 mg/L (inactive); for `Cc1ccc(-c2nnc(N3CCN(C(=O)c4ccc(Cl)cc4)CC3)c3ccccc23)cc1`, 3.65 mg/L (≈ 8.24 µM).
With `CCC(C)c1ccc(OCC(=O)NC2C3CC4CC(C3)CC2C4)cc1` (configuration not stated) the figure was 7.97 mg/L (≈ 23.3 µM); with `COc1ccc(CNc2ccccc2O)cc1OC`, 16.3 mg/L (≈ 62.7 µM).
With `CCOC(=O)C1=C(C)N(c2ccc(Br)cc2)C(=O)C1`, the IC50 is 3.23 mg/L (≈ 9.96 µM).
With `CCCOc1ccccc1NC(=O)Nc1ccc(Cl)c(Cl)c1` the figure was 1.71 mg/L (≈ 5.04 µM); with `O=C(CC1Sc2ccc(Cl)cc2NC1=O)Nc1ccc([N+](=O)[O-])cc1` (configuration not stated), 2.53 mg/L (≈ 6.7 µM); with `Cc1ccccc1NC(=O)c1cc(Cl)ccc1O`, 2.6 mg/L (≈ 9.93 µM).
For `CC(C)(C)c1ccc(C(=O)Nc2nc3ccccc3[nH]2)cc1` the value was below 0.1 mg/L; for `O=C(CCNc1ccc(-c2ccccc2)cc1)c1ccco1`, below 0.1 mg/L.
With `CCCOc1ccc(C(=O)NC(=S)Nc2ccc(C(=O)O)cc2)cc1` the figure was 0.12 mg/L (≈ 0.335 µM).
`O=S1(=O)C=C(Sc2nnc(-c3ccncc3)o2)c2ccccc21`: the concentration for half-maximal inhibition (IC50) is 1.33 mg/L (≈ 3.87 µM).
With `COC(=O)CSc1nnc(-c2ccc(Cl)cc2)o1` the figure was below 0.1 mg/L; with `CCc1c(C)c2ccc(OCC(=O)OC)c(C)c2oc1=O`, 0.54 mg/L (≈ 1.86 µM).
As to `CC(C)Oc1ccc(NC(=O)CSc2nc3ccccc3s2)cc1`, the half-maximal inhibitory concentration (IC50) was 6.12 mg/L (≈ 17.1 µM).
For `CN1CCN(c2ccc(NC(=O)c3ccc(-c4ccc(Cl)cc4)o3)cc2)CC1` the value was 38 mg/L (≈ 96 µM); for `c1cc2c3c(cccc3c1)NC1(CCCCCC1)N2`, > 50 mg/L (inactive); for `O=C(NCc1cccc(C(F)(F)F)c1)Nc1cccc(Cl)c1`, 5.93 mg/L (≈ 18 µM).
With `Cc1ccc2nc(-c3cccc(NC(=O)c4cccs4)c3)[nH]c2c1`, the IC50 is 7.08 mg/L (≈ 21.2 µM).
With `Cc1cnc(Nc2cccc(Cl)c2)s1` the figure was 14.3 mg/L (≈ 63.7 µM).
For `N#Cc1c(SCCN2CCCC2)nc2c(c1C(F)(F)F)CC(c1ccccc1)CC2` (configuration not stated) the value was 47.4 mg/L (≈ 110 µM); for `CCOC(=O)c1ccc(NC(=O)/C=C/c2ccc([N+](=O)[O-])s2)cc1`, 0.28 mg/L (≈ 0.808 µM); for `COc1ccc(C23CC4CC(CC(C4)C2)C3)cc1C(=O)NCCN(C)C`, 10.8 mg/L (≈ 30.3 µM).
For `O=C(Oc1ccccc1)c1ccc(S(=O)(=O)N2CCCCC2)cc1`, the IC50 is 0.73 mg/L (≈ 2.11 µM).
On to `Cc1nn2c3ccc(N)cc3nc2c2ccccc12`, for which the IC50 is 17.5 mg/L (≈ 70.6 µM).
For the compound `COc1cccc(-n2nnnc2S(C)(=O)=O)c1`, the half-inhibitory concentration (IC50) was 1.16 mg/L (≈ 4.56 µM).
On to `O=c1cc(Cc2ccccc2)nc2c(-c3ccccc3)c[nH]n12`, for which the IC50 was 0.36 mg/L (≈ 1.19 µM).
`Cc1cc(Oc2nc([N+](=O)[O-])nn2C)ccc1Cl`: the half-inhibitory concentration (IC50) is 5.88 mg/L (≈ 21.9 µM).
On to `COc1c(C)cccc1C(=O)Nc1ccc(N2CCCC2)cc1`, for which the IC50 was 4.85 mg/L (≈ 15.6 µM).
In the case of `CCOc1ccc(NC(=S)Nc2ccc3nsnc3c2)cc1`, the half-inhibitory concentration (IC50) was 0.52 mg/L (≈ 1.57 µM).
With `N#Cc1ccc(-c2nc(-c3ccccc3)c(-c3cccs3)[nH]2)cc1`, the IC50 is 5.89 mg/L (≈ 18 µM).

Usually IC50 stands for the concentration that gives 50% inhibition.
